The values that follow come from patent US12286632B2, “Rationally-designed synthetic peptide shuttle agents for delivering polypeptide cargos from an extracellular space to the cytosol and/or nucleus of a target eukaryotic cell, uses thereof, methods and kits relating to same” (Feldan Bio Inc., priority 2016, dated 2025).

Ends that are not written are not given here. Peptide text beside a SMILES is read from it.

The nature of one data set: in vitro. To be noted: human, HeLa cells.
Another data set has as its system HeLa cells. Briefly: GFP-NLS protein transduction assay (flow cytometry: Pos cells %, viability %, relative fluorescence intensity; microscopy). The conditions noted are these: Protocol B, HeLa, GFP-NLS 5 μM. (In general: In flow cytometry, cells or beads pass a laser one at a time.)
Setting [1] is: Cell viability (%) (±St. Dev.; n = 3).
Setting [2] is: Table 10.3a, shuttle 50 μM, 10 seconds.
The mark [3] stands for this setting: Cell viability (%) (±St Dev.; n = 3).
Where [4] appears, read: Table 10.3e, shuttle 20 μM, 1 minute.

In general, viability refers to the share of living cells, or the viability signal relative to a control. A high value points to better survival. Turning to `CSCC[C@H](NC(=O)[C@H](CCCCN)NC(=O)[C@H](CC(N)=O)NC(=O)[C@H](CC(C)C)NC(=O)[C@H](Cc1c[nH]c2ccccc12)NC(=O)[C@H](Cc1ccccc1)NC(=O)[C@H](CS)NC(=O)[C@H](CC(C)C)NC(=O)[C@H](Cc1ccccc1)NC(=O)[C@H](CCC(N)=O)NC(=O)[C@H](Cc1c[nH]cn1)NC(=O)[C@H](Cc1c[nH]cn1)NC(=O)[C@H](Cc1c[nH]cn1)NC(=O)[C@H](Cc1c[nH]cn1)NC(=O)[C@H](Cc1c[nH]cn1)NC(=O)[C@@H](N)Cc1c[nH]cn1)C(=O)NCC(=O)N[C@@H](CCCCN)C(=O)N[C@@H](Cc1c[nH]cn1)C(=O)N[C@@H](CC(N)=O)C(=O)N[C@H](C(=O)N[C@H](C(=O)N[C@@H](Cc1c[nH]c2ccccc12)C(=O)N[C@@H](Cc1c[nH]cn1)C(=O)NCC(=O)N[C@@H](CCCNC(=N)N)C(=O)N[C@@H](Cc1c[nH]cn1)C(=O)N[C@@H](CC(C)C)C(=O)N[C@@H](CCCCN)C(=O)N[C@@H](CS)C(=O)N[C@@H](Cc1c[nH]cn1)C(=O)N[C@@H](CCCCN)C(=O)N[C@@H](CCCNC(=N)N)C(=O)NCC(=O)N[C@@H](CCCCN)C(=O)NCC(=O)O)C(C)C)[C@@H](C)O` [FSN3] (H-HHHHHHQFLCFWLNKMGKHNTVWHGRHLKCHKRGKG-OH; N-terminus and C-terminus assumed), the viability in “in vitro” (setting [1]) was determined as 97.2 ± 2.03%.
Still for that read-out and setting: in the case of HHHHHHFRKLWLAIVRAKK [FSN8] it was 94.5 ± 3.72%.
Turning to “HHHHHHKKALLALALHHLAHLALHLALALKKAYARAAARQARA [His--PTD4]”, the “Cell viability (%) (±St. Dev.; n = 3)” value with HeLa cells (setting [2]) was determined as 98 ± 1.5%.
With “HHHHHHKRKKKRRAKKKRAWLYLALLLWALALHHHHHH [FSD3]”, the viability in the data set “in vitro” (setting [3]) was 91.1 ± 6.37%.
With “HHHHHHKRQLKRKLRKWKRLLRLLRLLARLWLHHHHHH [FSD4]”, the viability in the data set “in vitro” (setting [3]) came out at 86.1 ± 8.15%.
The molecule “HHHHHHKWAKLLRAFAKAIKKLYARLARRQARTGHHHHHH [FSD13]” came in with a viability in “in vitro” (setting [3]) of 49.5 ± 5.13%.
“HHHHHHKWKLFKKIGAVLKVLTTGGWTLNSAGYLLKINLKALAALAKKIL [His-CM18-Transportan (TPT)]”: the “Cell viability (%) (±St. Dev.; n = 3)” value stood at 41.3 ± 3.3% in the data set on HeLa cells (Table 10.1, shuttle 50 μM, 10 seconds) and 41.3 ± 3.29% in the data set with HeLa cells (setting [2]).
For “HHHHHHKWKLFKKIGAVLKVLTTGYARAAARQARACCCCCC (cysteines drawn unpaired) [His-CM18-PTD4-6Cys]”, the “Mean % cells with GFP signal (±St Dev.; n = 3)” value in the data set on HeLa cells (setting [4]) is 41.3 ± 4.28%.
As to “HHHHHHKWKLLRRAAKKAARRYLKLLLKQLKLHHHHHH [FSD1]”, the viability in the data set “in vitro” (setting [3]) worked out at 60.3 ± 6.18%.
Same read-out and setting: in the case of “HHHHHHLAKLFKWLRALIRQGAKRKTKRASAHHHHHH [FSD17]” it was 99.1 ± 2.09%.
Turning to “HHHHHHLALARWARYFRILAKLKRTKRGQAKAHHHHHH [FSD14]”, in “in vitro” (setting [3]), the viability amounted to 92.8 ± 7.42%.
As to “HHHHHHLLKLWRRLLKLFRKALRALAKRAKSALKRAQAA [FSN5]”, the viability in “in vitro” (setting [1]) stood at 85.4 ± 6.16%.
In turn, “HHHHHHWYLALLALYWQRAKAKTRQRRRHHHHHH [FSD6]” displayed a viability in “in vitro” (setting [3]) of 88.1 ± 7.66%.
“KWKLFKKIGAVLKVLTTGHHHHHHYARAAARQARA [CM18-His-PTD4]”: the “Cell viability (%) (±St. Dev.; n = 3)” value in the data set with HeLa cells (setting [4]) was 57.7 ± 4.2%.
As for “LHHHSHHLIHIWLLFKLKLKKKKAARRARRARRHH [FSD29]”, the viability at 1 min, 10 µM in “in vitro” (setting [1]) stood at 89.8 ± 8.48%.
Take LIKLWSRFIKFWTQGRRIKAKLARAGQSWFG [FSN7]: in “in vitro” (setting [1]), the viability was 93.5 ± 3.61%.
On to “MHHHHHHKWKLFKKIGAVLKVLTTGYARAAARQARAC [Met-His-CM18-PTD4-Cys]”, for which the “Mean % cells with GFP signal (±St Dev.; n = 3)” value in the data set on HeLa cells (setting [4]) is 45.6 ± 3.88%.
“RLHHSHHLIHIWLLFKLKLKKKKRAARRARRHHHL [FSD37]”: the viability at 1 min, 10 µM in the data set “in vitro” (setting [1]) was determined as 73.9 ± 2.62%.
